Measurements: ChEMBL document CHEMBL1201861, “Genomics of Drug Sensitity in Cancer screening data, Wellcome Trust Sanger Institute”

How the values were obtained:
BC1 cell line = assay: SANGER: Inhibition of human BC-1 cell growth in a cell viability assay.; assay type: functional, cell-based; settings: Homo sapiens, BC1
HCC1599 = assay: cells; assay type: functional, cell-based, Homo sapiens; settings: Homo sapiens, HCC1599
Description: SANGER: Inhibition of human HCC1599 cell growth in a cell viability assay.

NCI-H889 = assay: cells; assay type: functional, cell-based, Homo sapiens; settings: Homo sapiens, NCI-H889
Description: SANGER: Inhibition of human NCI-H889 cell growth in a cell viability assay.

EB2 = assay: cells; assay type: functional, cell-based, Homo sapiens; settings: Homo sapiens, EB2
Description: SANGER: Inhibition of human EB2 cell growth in a cell viability assay.

SK-MM-2 = assay: cells; assay type: functional, cell-based, Homo sapiens; settings: Homo sapiens, SK-MM-2
Description: SANGER: Inhibition of human SK-MM-2 cell growth in a cell viability assay.

KMS-12-PE = assay: cells; assay type: functional, cell-based, Homo sapiens; settings: Homo sapiens, KMS-12-PE
Description: SANGER: Inhibition of human KMS-12-PE cell growth in a cell viability assay.

KP-N-YN = assay: cells; assay type: functional, cell-based, Homo sapiens; settings: Homo sapiens, KP-N-YN
Description: SANGER: Inhibition of human KP-N-YN cell growth in a cell viability assay.

NCI-H345 = assay: cells; assay type: functional, cell-based, Homo sapiens; settings: Homo sapiens, NCI-H345
Description: SANGER: Inhibition of human NCI-H345 cell growth in a cell viability assay.

RL = assay: cells; assay type: functional, cell-based, Homo sapiens; settings: Homo sapiens, RL
Description: SANGER: Inhibition of human RL cell growth in a cell viability assay.

NCI-H187 = assay: cells; assay type: functional, cell-based, Homo sapiens; settings: Homo sapiens, NCI-H187
Description: SANGER: Inhibition of human NCI-H187 cell growth in a cell viability assay.

NCI-H2196 = assay: cells; assay type: functional, cell-based, Homo sapiens; settings: Homo sapiens, NCI-H2196
Description: SANGER: Inhibition of human NCI-H2196 cell growth in a cell viability assay.

BC-3 = assay: cells; assay type: functional, cell-based, Homo sapiens; settings: Homo sapiens, BC-3
Description: SANGER: Inhibition of human BC-3 cell growth in a cell viability assay.

## COc1cc(N2CCN(C)CC2)ccc1Nc1ncc2c(n1)N(C)c1ccccc1C(=O)N2C
BC1 cell line
  IC50: > 8 µM
HCC1599
  IC50: > 8 µM
NCI-H889
  IC50: > 8 µM
EB2
  IC50: 2.82 µM
SK-MM-2
  IC50: 2.59 µM
KMS-12-PE
  IC50: > 8 µM
KP-N-YN
  IC50: > 8 µM
NCI-H345
  IC50: > 8 µM
RL
  IC50: 2.78 µM
NCI-H187
  IC50: > 8 µM
NCI-H2196
  IC50: > 8 µM
BC-3
  IC50: > 8 µM

## COc1cc(-c2nn([C@H]3CC[C@H](N4CCN(C(C)=O)CC4)CC3)c3ncnc(N)c23)ccc1NC(=O)c1cc2ccccc2n1C
BC1 cell line
  IC50: > 5.12 µM
HCC1599
  IC50: > 5.12 µM
NCI-H889
  IC50: > 5.12 µM
EB2
  IC50: > 5.12 µM
SK-MM-2
  IC50: > 5.12 µM
KMS-12-PE
  IC50: > 5.12 µM
NCI-H345
  IC50: > 5.12 µM
RL
  IC50: > 5.12 µM
NCI-H187
  IC50: > 5.12 µM
NCI-H2196
  IC50: > 5.12 µM
BC-3
  IC50: > 5.12 µM

## OCCCNc1cc(-c2ccnc(Nc3cccc(Cl)c3)n2)ccn1
BC1 cell line
  IC50: 0.0695 µM
HCC1599
  IC50: 0.0439 µM
NCI-H889
  IC50: > 0.256 µM
EB2
  IC50: > 0.256 µM
SK-MM-2
  IC50: 0.124 µM
KMS-12-PE
  IC50: > 0.256 µM
NCI-H345
  IC50: > 0.256 µM
RL
  IC50: > 0.256 µM
NCI-H187
  IC50: > 0.256 µM
NCI-H2196
  IC50: 0.112 µM
BC-3
  IC50: 0.0766 µM

## Cc1ccc(-c2c(C(=O)CCl)n(CCCO)c3ncnc(N)c23)cc1
BC1 cell line
  IC50: > 4 µM
HCC1599
  IC50: 2.17 µM
NCI-H889
  IC50: > 4 µM
EB2
  IC50: > 4 µM
SK-MM-2
  IC50: > 4 µM
KMS-12-PE
  IC50: > 4 µM
NCI-H345
  IC50: > 4 µM
RL
  IC50: > 4 µM
NCI-H187
  IC50: > 4 µM
NCI-H2196
  IC50: > 4 µM
BC-3
  IC50: > 4 µM

## C#Cc1cccc(Nc2ncnc3cc(OCCOC)c(OCCOC)cc23)c1 [ERLOTINIB]
BC1 cell line
  IC50: > 2 µM
HCC1599
  IC50: > 2 µM
EB2
  IC50: > 2 µM
SK-MM-2
  IC50: > 2 µM
KMS-12-PE
  IC50: > 2 µM
NCI-H345
  IC50: > 2 µM
RL
  IC50: > 2 µM
NCI-H187
  IC50: > 2 µM
NCI-H2196
  IC50: > 2 µM
BC-3
  IC50: > 2 µM

## COc1cc2ncn(-c3cc(OCc4ccccc4S(C)(=O)=O)c(C#N)s3)c2cc1OC [GSK-319347A]
BC1 cell line
  IC50: > 5 µM
HCC1599
  IC50: > 5 µM
NCI-H889
  IC50: > 5 µM
EB2
  IC50: > 5 µM
SK-MM-2
  IC50: > 5 µM
KMS-12-PE
  IC50: > 5 µM
KP-N-YN
  IC50: > 5 µM
NCI-H345
  IC50: > 5 µM
RL
  IC50: > 5 µM
NCI-H187
  IC50: > 5 µM
NCI-H2196
  IC50: > 5 µM
BC-3
  IC50: > 5 µM

## COc1cc2ncn(-c3cc(OCc4ccccc4C(F)(F)F)c(C(N)=O)s3)c2cc1OC [GW843682X]
BC1 cell line
  IC50: 0.244 µM
HCC1599
  IC50: 0.0185 µM
NCI-H889
  IC50: 0.0924 µM
EB2
  IC50: > 0.256 µM
SK-MM-2
  IC50: > 0.256 µM
KMS-12-PE
  IC50: > 0.256 µM
NCI-H345
  IC50: > 0.256 µM
RL
  IC50: > 0.256 µM
NCI-H187
  IC50: 0.0233 µM
NCI-H2196
  IC50: > 0.256 µM
BC-3
  IC50: > 0.256 µM

## CC(=O)O[C@H]1C(=O)[C@@]2(C)[C@H]([C@H](OC(=O)c3ccccc3)[C@]3(O)C[C@H](OC(=O)[C@H](O)[C@@H](NC(=O)c4ccccc4)c4ccccc4)C(C)=C1C3(C)C)[C@]1(OC(C)=O)CO[C@@H]1C[C@@H]2O [PACLITAXEL]
BC1 cell line
  IC50: > 0.102 µM
HCC1599
  IC50: 0.0202 µM
NCI-H889
  IC50: 0.0559 µM
EB2
  IC50: > 0.102 µM
SK-MM-2
  IC50: > 0.102 µM
KMS-12-PE
  IC50: > 0.102 µM
NCI-H345
  IC50: > 0.102 µM
RL
  IC50: > 0.102 µM
NCI-H187
  IC50: > 0.102 µM
NCI-H2196
  IC50: > 0.102 µM
BC-3
  IC50: 0.0234 µM

## N[C@@H](CSC(c1ccccc1)(c1ccccc1)c1ccccc1)C(=O)O [S-TRITYL-L-CYSTEINE]
BC1 cell line
  IC50: > 5.12 µM
HCC1599
  IC50: 1.23 µM
NCI-H889
  IC50: > 5.12 µM
EB2
  IC50: > 5.12 µM
SK-MM-2
  IC50: > 5.12 µM
KMS-12-PE
  IC50: > 5.12 µM
NCI-H345
  IC50: > 5.12 µM
RL
  IC50: > 5.12 µM
NCI-H187
  IC50: > 5.12 µM
NCI-H2196
  IC50: > 5.12 µM
BC-3
  IC50: 2.19 µM

## CC[C@H](CO)Nc1nc(NCc2ccccc2)c2ncn(C(C)C)c2n1 [SELICICLIB]
BC1 cell line
  IC50: > 16 µM
HCC1599
  IC50: 14.6 µM
NCI-H889
  IC50: > 16 µM
EB2
  IC50: > 16 µM
SK-MM-2
  IC50: > 16 µM
KMS-12-PE
  IC50: > 16 µM
NCI-H345
  IC50: > 16 µM
RL
  IC50: > 16 µM
NCI-H187
  IC50: > 16 µM
NCI-H2196
  IC50: > 16 µM
BC-3
  IC50: > 16 µM

## CCN(CC)CCNC(=O)c1c(C)[nH]c(/C=C2\C(=O)Nc3ccc(F)cc32)c1C [SUNITINIB]
BC1 cell line
  IC50: 7.25 µM
HCC1599
  IC50: > 8 µM
NCI-H889
  IC50: > 8 µM
EB2
  IC50: > 8 µM
SK-MM-2
  IC50: 5.48 µM
KMS-12-PE
  IC50: > 8 µM
NCI-H345
  IC50: > 8 µM
RL
  IC50: > 8 µM
NCI-H187
  IC50: > 8 µM
NCI-H2196
  IC50: > 8 µM
BC-3
  IC50: > 8 µM
